The pIC50 is the negative decadic logarithm of the IC50, by convention in mol/L. A low value points to a large IC50.

This note sets out measurements from BindingDB's records for doi:10.1016/j.bmcl.2004.01.093 (University of California Irvine, 2004).

pIC50: −log10 of the molar value. A value given as a limit tells only on which side of the number the result lay.

The test deals with Protein phosphatase 1 catalytic subunit (Oryctolagus cuniculus). The test can be described thus: Inhibitory activity against protein phosphatase-1 from rabbit skeletal muscle.

`CCOC(=O)c1ccc(NC(=O)C2C(C(=O)O)[C@@H]3C=C[C@H]2O3)cc1` (stereo partly specified) had a pIC50 of 4.12. `COC(=O)c1cccc(NC(=O)C2C(C(=O)O)[C@@H]3C=C[C@H]2O3)c1` (stereo partly drawn) [(1S,4R)-3-(3-Methoxycarbonyl-phenylcarbamoyl)-7-oxa-bicyclo[2.2.1]hept-5-ene-2-carboxylic acid] showed a pIC50 of 4.22. Under `CNC(=O)C1C(C(=O)O)[C@@H]2C=C[C@H]1O2` (stereo partly drawn) [(1S,4R)-3-Methylcarbamoyl-7-oxa-bicyclo[2.2.1]hept-5-ene-2-carboxylatemethyl-ammonium;] stands below 4.00. Under `N#CC[C@]12C=C[C@H](O1)[C@@H]1C(=O)OC(=O)C12` (stereo partly drawn) [((1R,6R,7S)-3,5-Dioxo-4,10-dioxa-tricyclo[5.2.1.0*2,6*]dec-8-en-1-yl)-acetonitrile] stands below 4.00.

As to `CC(=O)NC[C@@]12CC[C@@H](O1)C1C(=O)OC(=O)[C@H]12` (stereo partly drawn) [N-((1S,2R,7R)-3,5-Dioxo-4,10-dioxa-tricyclo[5.2.1.0*2,6*]dec-1-ylmethyl)-acetamide], the negative logarithm of the IC50 (pIC50) is below 4.00. As for `CC(=O)NC[C@@]12C=C[C@@H](O1)C1C(=O)OC(=O)[C@H]12` (stereo partly drawn) [N-((1S,2R,7R)-3,5-Dioxo-4,10-dioxa-tricyclo[5.2.1.0*2,6*]dec-8-en-1-ylmethyl)-acetamide], the pIC50 is below 4.00.
